Assay results published in patent publication US11685732B2, “MYST family histone acetyltransferase inhibitors” (Epizyme, Inc., priority 2017, dated 2023).
Like-named read-outs stand apart in the source and are kept apart here.

Key:
[1] = target: KAT-5 (Homo sapiens (Human), UniProt Q92993); test: KAT-5 biochemical inhibition assay (SAMDI mass spectrometry)
How it was run: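 Acetylation of 1 μM peptide by 9 nM enzyme with 0.5 μM acetyl-CoA (final) was run 90 min at 25° C in Tris pH 8.0 buffer with DTT, after compound preincubation at 2% DMSO. Formic acid stopped the reaction, and product was quantified by SAMDI mass spectrometry to derive IC50.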

[2] = target: KAT-8 (Homo sapiens (Human), UniProt Q9H7Z6); test: KAT-8 biochemical inhibition assay (SAMDI mass spectrometry)
Chain of KAT-8 (Q9H7Z6 other isoform, or with tags, fused parts or gaps): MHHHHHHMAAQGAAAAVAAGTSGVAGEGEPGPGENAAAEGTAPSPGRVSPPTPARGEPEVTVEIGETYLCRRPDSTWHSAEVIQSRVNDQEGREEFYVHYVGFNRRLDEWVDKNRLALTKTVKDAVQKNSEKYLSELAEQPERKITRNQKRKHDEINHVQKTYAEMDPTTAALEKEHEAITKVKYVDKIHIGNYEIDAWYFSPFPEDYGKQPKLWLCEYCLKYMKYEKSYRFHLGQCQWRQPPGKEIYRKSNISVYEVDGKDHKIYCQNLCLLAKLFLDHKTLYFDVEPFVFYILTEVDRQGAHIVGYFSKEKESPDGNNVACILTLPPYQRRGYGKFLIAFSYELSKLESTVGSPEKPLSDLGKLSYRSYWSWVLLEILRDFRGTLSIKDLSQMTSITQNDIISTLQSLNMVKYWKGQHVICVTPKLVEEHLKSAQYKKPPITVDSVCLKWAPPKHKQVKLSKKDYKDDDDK
How it was run: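 Acetylation of 1 μM peptide substrate with 5 μM acetyl-CoA by 12.5 nM enzyme, compound pre-incubated, 2% DMSO, Tris pH 8.0 buffer with DTT, 25 °C for 90 min. Quench with 0.5% formic acid; product read by SAMDI mass spectrometry to give IC50.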

[3] = target: KAT-6A (Homo sapiens (Human), UniProt Q92794); test: KAT-6A biochemical inhibition assay (SAMDI mass spectrometry)
Chain of KAT-6A (Q92794 other isoform, or with tags, fused parts or gaps): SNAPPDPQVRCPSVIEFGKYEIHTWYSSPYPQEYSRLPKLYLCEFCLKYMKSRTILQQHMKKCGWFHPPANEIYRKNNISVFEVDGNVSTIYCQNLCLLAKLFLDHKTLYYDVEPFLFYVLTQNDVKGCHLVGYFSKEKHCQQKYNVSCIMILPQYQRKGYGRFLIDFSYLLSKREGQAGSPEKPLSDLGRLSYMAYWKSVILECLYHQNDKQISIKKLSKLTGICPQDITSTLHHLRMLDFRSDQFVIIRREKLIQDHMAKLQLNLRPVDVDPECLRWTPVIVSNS
How it was run: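 IC50 values came from SAMDI time-of-flight mass spectrometry after formic acid quench (0.5% final). Acetylation ran 90 min at 25 °C with 1 μM acetyl coenzyme A and 1 μM peptide substrate, following compound pre-incubation with 12.5 nM KAT-6A in Tris buffer pH 8.0 containing DTT, 2% DMSO final.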

[4] = target: KAT-7 (Homo sapiens (Human), UniProt O95251); test: KAT-7 biochemical inhibition assay (SAMDI mass spectrometry)
Chain of KAT-7 (O95251 other isoform, or with tags, fused parts or gaps): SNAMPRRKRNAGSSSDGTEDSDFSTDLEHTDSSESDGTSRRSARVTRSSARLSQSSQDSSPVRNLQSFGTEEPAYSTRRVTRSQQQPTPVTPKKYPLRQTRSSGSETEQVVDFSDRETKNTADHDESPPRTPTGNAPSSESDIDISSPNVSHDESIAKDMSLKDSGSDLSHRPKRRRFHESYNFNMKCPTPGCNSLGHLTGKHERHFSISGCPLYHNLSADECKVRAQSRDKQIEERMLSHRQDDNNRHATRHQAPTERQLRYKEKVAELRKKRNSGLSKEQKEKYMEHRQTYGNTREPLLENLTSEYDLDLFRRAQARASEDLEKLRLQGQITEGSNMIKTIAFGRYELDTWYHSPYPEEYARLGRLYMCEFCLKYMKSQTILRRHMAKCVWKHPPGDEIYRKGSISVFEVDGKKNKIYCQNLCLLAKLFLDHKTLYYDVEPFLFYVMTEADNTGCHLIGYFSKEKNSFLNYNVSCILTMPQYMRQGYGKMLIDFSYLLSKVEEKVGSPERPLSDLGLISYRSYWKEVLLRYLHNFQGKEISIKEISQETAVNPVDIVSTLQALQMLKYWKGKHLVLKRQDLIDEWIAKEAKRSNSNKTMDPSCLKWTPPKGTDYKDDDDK
How it was run: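 Read-out was SAMDI time-of-flight MS of formic acid-quenched reactions (0.5% final). Compound dilutions (2% DMSO final) were pre-incubated with 6 nM KAT-7 in 50 mM Tris pH 8.0 with 1 mM DTT, then given 1 μM peptide substrate and 2 μM acetyl-CoA for 120 min at 25 °C. IC50 values were derived.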

Chain of KAT-5 (Q92993 other isoform, or with tags, fused parts or gaps): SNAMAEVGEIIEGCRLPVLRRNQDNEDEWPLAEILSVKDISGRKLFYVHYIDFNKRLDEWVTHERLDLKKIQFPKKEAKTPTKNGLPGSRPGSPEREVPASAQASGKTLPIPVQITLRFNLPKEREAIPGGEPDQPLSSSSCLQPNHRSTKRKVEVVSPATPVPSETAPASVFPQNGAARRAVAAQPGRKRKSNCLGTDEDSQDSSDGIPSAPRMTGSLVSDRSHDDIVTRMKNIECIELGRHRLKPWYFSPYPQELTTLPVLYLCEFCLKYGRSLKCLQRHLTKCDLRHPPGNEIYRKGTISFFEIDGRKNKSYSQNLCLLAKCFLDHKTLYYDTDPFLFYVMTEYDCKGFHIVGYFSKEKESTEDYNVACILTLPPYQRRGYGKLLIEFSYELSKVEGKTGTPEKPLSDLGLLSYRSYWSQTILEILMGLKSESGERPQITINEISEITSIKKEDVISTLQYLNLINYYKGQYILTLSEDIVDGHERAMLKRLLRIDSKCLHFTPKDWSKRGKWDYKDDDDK

SMILES | IC50 [1] | IC50 [2] | IC50 [3] | IC50 [4] | IC50 ([1]; Table 6, comparative compounds) | IC50 ([2]; Table 6, comparative compounds) | IC50 ([3]; Table 6, comparative compounds) | IC50 ([4]; Table 6, comparative compounds)
Cn1cnc(-c2cc(Cl)c(F)c(C(=O)NNS(=O)(=O)C[C@H]3CCC[C@H](NC(=O)OC(C)(C)C)C3)c2)c1 [Compound I-350] | < 10 µM | 10 to 50 µM | < 10 µM | < 10 µM |  |  |  | 
Cn1cnc(-c2cc(Cl)c(F)c(C(=O)NNS(=O)(=O)C[C@@H]3CCC[C@@H](N)C3)c2)c1 [Compound I-351] | 10 to 50 µM | 10 to 50 µM | 10 to 50 µM | 10 to 50 µM |  |  |  | 
CCNC(=O)N1CCC(C)C(CS(=O)(=O)NNC(=O)c2cc(-c3cn(C)cn3)cc(Cl)c2F)C1 (stereo not drawn) [Compound I-352] | < 10 µM | 10 to 50 µM | 10 to 50 µM | < 10 µM |  |  |  | 
CO[C@H]1CC[C@@H](CS(=O)(=O)NNC(=O)c2cc(-c3cn(C)cn3)cc(Cl)c2F)CC1 [Compound I-353] | < 10 µM | 10 to 50 µM | < 10 µM | < 10 µM |  |  |  | 
Cn1cnc(-c2cc(Cl)c(F)c(C(=O)NNS(=O)(=O)c3ccc(OCc4ccccc4)nc3)c2)c1 [Compound I-354] | < 10 µM | 10 to 50 µM | 10 to 50 µM | < 10 µM |  |  |  | 
CCNC(=O)N[C@@H]1CCC[C@@H](CS(=O)(=O)NNC(=O)c2cc(-c3cn(C)cn3)cc(Cl)c2F)C1 [Compound I-355] | < 10 µM | 10 to 50 µM | < 10 µM | < 10 µM |  |  |  | 
CCO[C@@H]1CCC[C@H](CS(=O)(=O)NNC(=O)c2cc(-c3cn(C)cn3)cc(Cl)c2F)C1 [Compound I-356] | < 10 µM | 10 to 50 µM | 10 to 50 µM | < 10 µM |  |  |  | 
CCO[C@H]1CCC[C@H](CS(=O)(=O)NNC(=O)c2cc(-c3cn(C)cn3)cc(Cl)c2F)C1 [Compound I-357] | < 10 µM | 10 to 50 µM | < 10 µM | < 10 µM |  |  |  | 
Cn1cnc(-c2cc(Cl)c(F)c(C(=O)NNS(=O)(=O)CC3(F)CCCCC3)c2)c1 [Compound I-358] | < 10 µM | 10 to 50 µM | < 10 µM | < 10 µM |  |  |  | 
COc1ccc(CN(C)C(=O)NC2CCC(CS(=O)(=O)NNC(=O)c3cc(-c4cn(C)cn4)cc(Cl)c3F)C2)cc1 (stereo not drawn) [Compound I-359] | < 10 µM | 10 to 50 µM | < 10 µM | < 10 µM |  |  |  | 
CNC(=O)NC1CCC(CS(=O)(=O)NNC(=O)c2cc(-c3cn(C)cn3)cc(Cl)c2F)C1 (stereo not drawn) [Compound I-360] | < 10 µM | 10 to 50 µM | < 10 µM | < 10 µM |  |  |  | 
Cn1cnc(-c2cc(Cl)c(F)c(C(=O)NNS(=O)(=O)c3cnn(CCOCc4ccccc4)c3)c2)c1 [Compound I-361] | 10 to 50 µM | 10 to 50 µM | 10 to 50 µM | < 10 µM |  |  |  | 
Cn1cnc(-c2cc(Cl)c(F)c(C(=O)NNS(=O)(=O)c3cnn(CCO)c3)c2)c1 [Compound I-362] | 10 to 50 µM | 10 to 50 µM | 10 to 50 µM | < 10 µM |  |  |  | 
CCNC(=O)N(C)[C@H]1CC[C@@H](CS(=O)(=O)NNC(=O)c2cc(-c3cn(C)cn3)cc(Cl)c2F)CC1 [Compound I-363] | < 10 µM | 10 to 50 µM | 10 to 50 µM | < 10 µM |  |  |  | 
CN[C@H]1CC[C@@H](CS(=O)(=O)NNC(=O)c2cc(-c3cn(C)cn3)cc(Cl)c2F)CC1 [Compound I-364] | 10 to 50 µM | 10 to 50 µM | 10 to 50 µM | < 10 µM |  |  |  | 
CN(C)C(=O)N(C)[C@H]1CC[C@@H](CS(=O)(=O)NNC(=O)c2cc(-c3cn(C)cn3)cc(Cl)c2F)CC1 [Compound I-365] | < 10 µM | 10 to 50 µM | < 10 µM | < 10 µM |  |  |  | 
CN(C)C(=O)N(C)[C@H]1CC[C@H](CS(=O)(=O)NNC(=O)c2cc(-c3cn(C)cn3)cc(Cl)c2F)CC1 [Compound I-366] | < 10 µM | 10 to 50 µM | < 10 µM | < 10 µM |  |  |  | 
CC(=O)Nc1cccc(S(=O)(=O)NNC(=O)c2cc(-c3cn(C)cn3)cc(Cl)c2F)c1 [Compound I-367] | < 10 µM | 10 to 50 µM | < 10 µM | < 10 µM |  |  |  | 
COCCOc1cccc(S(=O)(=O)NNC(=O)c2cc(-c3cn(C)cn3)cc(Cl)c2F)c1 [Compound I-368] | < 10 µM | 10 to 50 µM | < 10 µM | < 10 µM |  |  |  | 
COCCOc1ccc(S(=O)(=O)NNC(=O)c2cc(-c3cn(C)cn3)cc(Cl)c2F)cc1 [Compound I-369] | < 10 µM | 10 to 50 µM | 10 to 50 µM | < 10 µM |  |  |  | 

SMILES | IC50 [1] | IC50 [2] | IC50 [3] | IC50 [4] | IC50 ([1]; Table 6, comparative compounds) | IC50 ([2]; Table 6, comparative compounds) | IC50 ([3]; Table 6, comparative compounds) | IC50 ([4]; Table 6, comparative compounds)
CC(=O)Nc1ccccc1S(=O)(=O)NNC(=O)c1cc(-c2cn(C)cn2)cc(Cl)c1F [Compound I-370] | 10 to 50 µM | 10 to 50 µM | < 10 µM | < 10 µM |  |  |  | 
Cn1cnc(-c2cc(Cl)c(F)c(C(=O)NNS(=O)(=O)C[C@H]3CCOC3)c2)c1 [Compound I-371] | < 10 µM | 10 to 50 µM | < 10 µM | < 10 µM |  |  |  | 
Cn1cnc(-c2cc(Cl)c(F)c(C(=O)NNS(=O)(=O)C[C@@H]3CCOC3)c2)c1 [Compound I-372] | < 10 µM | 10 to 50 µM | 10 to 50 µM | < 10 µM |  |  |  | 
COCCc1c(-c2cc(Cl)c(F)c(C(=O)NNS(=O)(=O)CC3CCOCC3)c2)cnn1C [Compound I-373] | 10 to 50 µM | 10 to 50 µM | 10 to 50 µM | 10 to 50 µM |  |  |  | 
Cn1cnc(-c2cc(Cl)c(F)c(C(=O)NNS(=O)(=O)c3cccnc3OCc3ccccc3)c2)c1 [Compound I-374] | < 10 µM | 10 to 50 µM | < 10 µM | < 10 µM |  |  |  | 
Cn1cnc(-c2cc(Cl)c(F)c(C(=O)NNS(=O)(=O)c3cccc(OCc4ccccc4)n3)c2)c1 [Compound I-375] | < 10 µM | 10 to 50 µM | < 10 µM | < 10 µM |  |  |  | 
CN(C(=O)OC(C)(C)C)c1ccc(S(=O)(=O)NNC(=O)c2cc(-c3cn(C)cn3)cc(Cl)c2F)cc1 [Compound I-377] | 10 to 50 µM | 10 to 50 µM | 10 to 50 µM | < 10 µM |  |  |  | 
Cn1cnc(-c2cc(Cl)c(F)c(C(=O)NNS(=O)(=O)c3c(F)cccc3F)c2)c1 [Compound I-378] | < 10 µM | 10 to 50 µM | < 10 µM | < 10 µM |  |  |  | 
CC(=O)Nc1ccc(S(=O)(=O)NNC(=O)c2cc(-c3cn(C)cn3)cc(Cl)c2F)cc1 [Compound I-379] | 10 to 50 µM | 10 to 50 µM | 10 to 50 µM | < 10 µM |  |  |  | 
CCOc1ccc(S(=O)(=O)NNC(=O)c2cc(-c3cn(C)cn3)cc(Cl)c2F)cc1 [Compound I-380] | < 10 µM | 10 to 50 µM | < 10 µM | < 10 µM |  |  |  | 
Cn1cnc(-c2cc(Cl)c(F)c(C(=O)NNS(=O)(=O)c3ccc(=O)[nH]c3)c2)c1 [Compound I-381] | 10 to 50 µM | 10 to 50 µM | < 10 µM | < 10 µM |  |  |  | 
CNc1ccc(S(=O)(=O)NNC(=O)c2cc(-c3cn(C)cn3)cc(Cl)c2F)cc1 [Compound I-382] | 10 to 50 µM | > 100 µM | < 10 µM | < 10 µM |  |  |  | 
Cn1cnc(-c2cc(Cl)c(F)c(C(=O)NNS(=O)(=O)CC3CCc4ccccc4C3)c2)c1 (stereo not drawn) [Compound I-383] | < 10 µM | 10 to 50 µM | < 10 µM | < 10 µM |  |  |  | 
Cn1cnc(-c2cc(Cl)c(F)c(C(=O)NNS(=O)(=O)CC3CCCCC3O)c2)c1 (stereo not drawn) [Compound I-384] | < 10 µM | 50 to 100 µM | 10 to 50 µM | < 10 µM |  |  |  | 
CNc1ccccc1S(=O)(=O)NNC(=O)c1cc(-c2cn(C)cn2)cc(Cl)c1F [Compound I-385] | < 10 µM | > 100 µM | < 10 µM | < 10 µM |  |  |  | 
COC1CCC(CS(=O)(=O)NNC(=O)c2cc(-c3cn(C)cn3)cc(Cl)c2F)C1 (stereo not drawn) [Compound I-387] | < 10 µM | 50 to 100 µM | < 10 µM | < 10 µM |  |  |  | 
Cn1cnc(-c2cc(Cl)c(F)c(C(=O)NNS(=O)(=O)C[C@H]3CCCO3)c2)c1 [Compound I-388] | < 10 µM | > 100 µM | < 10 µM | < 10 µM |  |  |  | 
Cn1cnc(-c2cc(Cl)c(F)c(C(=O)NNS(=O)(=O)C[C@@H]3CCCO3)c2)c1 [Compound I-389] | < 10 µM | > 100 µM | < 10 µM | < 10 µM |  |  |  | 
Cc1cc(-c2ccccc2)cc(C(=O)NNS(=O)(=O)CC2CCCNC2)c1F (stereo not drawn) [D, reference compound] |  |  |  |  | 10 to 50 µM | > 100 µM | > 100 µM | > 100 µM
